Assay: Toxicity in brine shrimps larvae assessed as mortality at 10 ug/ml after 24 hrs
Assay type: organism-based
Details: artemia, brine shrimp larvae; read-out: Activity

| Compound | mortality at 24 h, 10 ug/ml [%] |
| --- | --- |
| C[C@H]1C/C=C/[C@@H](O)[C@@H](O)CC/C=C/c2cc(O)cc(O)c2C(=O)O1 [AIGIALOMYCIN D] | 76.7 |
| C[C@@H]1C[C@@H](O)/C=C\[C@H](O)CCC(=O)Cc2c(Cl)c(O)cc(O)c2C(=O)O1 [POCHONIN N] | 82.8 |
| C[C@H](O)C/C=C/CCCCc1cc2cc(O)cc(O)c2c(=O)o1 [FUSARIUMIN] | 78.2 |

Reference: ChEMBL document CHEMBL1681773, “Toxic polyketides produced by Fusarium sp., an endophytic fungus isolated from Melia azedarach” (Bioorg Med Chem Lett, 2011)
